These results are taken from patent US20040209776A1, “Azole derivatives useful as insecticide” (priority 2001, published 2004).

The structures appear in SMILES notation.

One data set concerns Heliothis virescens. The data set is described as follows: Pest mortality test against tobacco budworms. Conditions: 120 h, 500 ppm by weight, mortality assessed usually between two and five days after treatment, read-out: Hv mortality (score). The data set is classed as in vivo. The procedure: (§1) This Example illustrates the pesticidal/insecticidal properties of compounds of formula (I). The activities of individual compounds of formula (I) were determined using a variety of pests. The pests were treated with a liquid composition containing 500 parts per million (ppm) by weight of a compound of formula (I). Each composition was made by dissolving the compound in an acetone and ethanol (50:50 by volume) mixture and diluting the solution with water containing 0.05% by volume of a wetting agent, SYNPERONIC NP8, until the liquid composition contained the required concentration of the compound. SYNPERONIC is a registered trade mark.
(§2) The test procedure adopted with regard to each pest was essentially the same and comprised supporting a number of the pests on a medium, which was usually a substrate, a host plant or a foodstuff on which the pests feed, and treating either or both the medium and the pests with a composition. Pest mortality was assessed usually between two and five days after treatment.
(§3) Similar tests were conducted against, independently, two-spotted spider mites (Tetranychus urticae), fruit flies (Drosophila melanogaster), tobacco budworms (Heliothis virescens), diamond back moth (Plutella xylostella) and corn root worm (Diabrotica balteata).

For another data set, the system named is Drosophila melanogaster. The data set is described as follows: Pest mortality test against fruit flies. The data set is classed as in vivo. Conditions: 120 h, 500 ppm by weight, mortality assessed usually between two and five days after treatment, read-out: Dm mortality (score). How it is done:
as §1, §2, §3

For the next data set, the system named is Myzus persicae. Nature of the data set: Pest mortality test against peach potato aphids, infested Chinese cabbage leaves sprayed. Format: in vivo. The note with it: 72 h, 500 ppm by weight, sprayed on infested Chinese cabbage leaves, mortality assessed after three days, read-out: Mp mortality (score). The procedure: as §1, §2
In each test against peach potato aphids (Myzus persicae), Chinese cabbage leaves were infested with aphids, the infested leaves were sprayed with a test composition and pest mortality was assessed after three days.

The next data set relates to Diabrotica balteata. Nature of the data set: Pest mortality test against corn root worm. The data set is classed as in vivo. Conditions: 120 h, 500 ppm by weight, mortality assessed usually between two and five days after treatment, read-out: Db mortality (score). The procedure:
as §1, §2, §3

The subject of a further data set is Plutella xylostella. The data set is described as follows: Pest mortality test against diamond back moth. The data set is classed as in vivo. Conditions: 120 h, 500 ppm by weight, mortality assessed usually between two and five days after treatment, read-out: Px mortality (score). How it is done: as §1, §2, §3
For a further data set, the system named is Meloidogyne incognita. Nature of the data set: In vitro test against root knot nematodes suspended in liquid composition. Format: in vivo. Conditions: 12.5 ppm by weight, no SYNPERONIC NP8, read-out: Mi mortality (score). How it is done: as §1
Tests were also conducted against root knot nematodes (Meloidogyne incognita) using an in vitro test in which nematodes were suspended in a liquid composition which had been prepared as described above except that it contained a concentration of 12.5 ppm by weight of a compound of formula (I) and it contained no SYNPERONIC NP8.

On to `Cc1nsc(NC(=O)C(C)c2ccc3oc(-c4cccc(Cl)c4Cl)nc3c2)c1Cl` (stereo not shown) [Compound 11, N-(4-chloro-3-methylisothiazol-5-yl)-2-[2-(2,3-dichlorophenyl)benzoxazol-5-yl]propionamide], for which the melting point fell in the range of 158 to 161 °C.
For the molecule `CCc1nsc(NC(=O)C(C)c2ccc3oc(-c4c(F)cccc4Cl)nc3c2)c1Cl` (stereo not shown) [Compound 1, N-(4-chloro-3-ethylisothiazol-5-yl)-2-[2-(2-chloro-6-fluorophenyl)benzoxazol-5-yl]propionamide], the mortality at 500 ppm with Heliothis virescens, in the data set on Drosophila melanogaster, with Myzus persicae, in the data set on Diabrotica balteata and in the data set with Plutella xylostella was 80 to 100% in each case. Also, in the data set with Meloidogyne incognita, the mortality at 12.5 ppm is < 40%.

As usually defined, the melting point is the temperature, or range, at which the solid turns liquid. As usually defined, the mortality is the share of the test organisms that died.
